Data as given in publication PMC7930822, “Phase I Trial to Evaluate the Tolerance, Pharmacokinetics and Efficacy of the Broad-Spectrum ErbB Family Inhibitor Larotinib Mesylate in Patients With Advanced Solid Tumors” (Frontiers in Pharmacology, 2021).
Counter-ions that a name gives are not always drawn.

Key:
[1] = tested on: patients with advanced solid tumors; assay: phase I safety and tolerance (NCI CTCAE version 4.03, DLTs); assay type: in vivo, human
Protocol: This was a phase I, single-center, open-label, dose-escalation study conducted at First Hospital of Jilin University, China (registration no.: ChiCTR-OPC-15007153 registered at http://www.chictr.org.cn). Larotinib mesylate hard capsules were produced and supplied by Sunshine Lake Pharma Co., Ltd (Guangdong Province, China) in different unit doses of […] under GMP condition. Seven dose levels were designed in the study: 50, 100, 150, 220, 300, 350, and 400 mg with administration stages labeled cycle 0, cycle 1, and subsequent treatment cycles. Patients received an oral single dose of larotinib mesylate after fasting during a 6-days cycle 0 to evaluate the tolerance and pharmacokinetic characteristics. After cycle 0, larotinib mesylate was continuously administered once daily for 28 days in cycle 1, and the tolerance and pharmacokinetic characteristics of multiple doses were evaluated (Figure 2). The patients who […] disease control (complete response [CR], partial response [PR], or stable disease [SD]) at the end of cycle one were permitted to participate in the subsequent 28-days treatment cycles until progressive disease (PD) or intolerance was observed.
We enrolled three to six patients for each dose level, with the goal of having at least three patients complete the cycle 0 and cycle 1 treatments. We made an enrollment regulation for the extra patients (>3) according to the study stage of the last enrolled patient in the present dose level: If the patient had finished cycle 1 day 22, extra screened patients would be enrolled to the next dose level; if not, the current dose level would be selected. If 1/3 of patients experienced a DLT in cycle 0 or cycle 1, expansion to six patients was required for the current dose level.
DLTs were observed according to the NCI CTCAE version 4.03 and defined as the emergence of any of the following drug-related AEs: hematological toxicity including Grade ≥3 neutropenia or thrombocytopenia and other Grade ≥4 hematological toxicity; nonhematological toxicities including Grade ≥2 atrioventricular block or renal injury; Grade ≥2 nausea, emesis, or diarrhea for ≥7 days despite optimal treatment; Grade ≥3 nausea, emesis, diarrhea, or rash despite supportive care; and alanine aminotransferase (ALT) or aspartate aminotransferase (AST) elevation by more than 5 times the upper limits of normal for ≥7 days and other Grade ≥3 nonhematological toxicities.
Safety was assessed according to the NCI CTCAE version 4.03 including AEs, vital signs, and results from 12-lead […], cardiac ultrasound, physical examination, ophthalmic testing, and clinical laboratory tests. Dosage adjustments could be applied from cycle 2 according to the severity of the toxicities. Drug administration would be suspended when drug-related AEs were graded at 3 or 4, and the original dose or reduction dose would be given if the AEs returned to baseline or Grade 1 (nonhematological toxicities)/grade 2 (hematological toxicities) within 14 days.

[2] = tested on: patients with advanced solid tumors; assay: tumor evaluation by RECIST version 1.1; assay type: in vivo, human; conditions: for Disease control, n (%): CR, PR and SD; for Objective response, n (%): complete plus partial response
Protocol: Tumor evaluation was performed at screening, the end of cycle 1, and every two cycles of subsequent treatment according to RECIST version 1.1. The disease control rate (DCR) (including CR, PR and SD), objective remission rate (ORR) (including CR and PR), and progression-free survival (PFS) were also evaluated.
Blood samples for EGFR mutation site analyses were collected in screening, cycle 1 day 29, cycle 3 days 29 and every 8 weeks for the subsequent follow-up. Second-generation sequencing method was used to detect the amplification and mutation of the related tumor genes.

[3] = tested on: EGFR with a deletion in the exon 19; parameters: method as in data not published; conditions: ref data not published; cited from earlier work
[4] = target: receptor-interacting serine/threonine-protein kinase 2 (RIPK2); parameters: method as in data not published; conditions: ref data not published; cited from earlier work
Sprague–Dawley rats = tested on: Sprague–Dawley rats; parameters: method as in data not published; conditions: ref data not published, cited from earlier work

In the case of COc1cc2ncnc(Nc3ccc(F)c(Cl)c3)c2cc1OCCCN1C[C@@H]2OCCO[C@@H]2C1 [larotinib mesylate], the MTD in patients ([1]; 50–400 mg/d oral) is reported as “no MTD established”, the “Grade 3 drug-related decreased lymphocytes” value ([1]; human, in vivo) is reported as 12% and the “Grade 3 drug-related diarrhea” value ([1]; human, in vivo) is reported as 4%. The “Grade 3 drug-related nausea” value ([1]; human, in vivo) was 4%, the “drug-related acne-like rash, incidence” value ([1]; human, in vivo) was 68.0% and the “drug-related anemia, incidence” value ([1]; human, in vivo) was 48.0%. The “drug-related decreased lymphocyte percentage, incidence” value ([1]; human, in vivo) was 40.0%, the “drug-related diarrhea, incidence” value ([1]; human, in vivo) was 48.0% and the “drug-related hand-foot skin reaction, incidence” value ([1]; human, in vivo) was 44.0%. The “drug-related hypoalbuminemia, incidence” value ([1]; human, in vivo) was 32.0%, the “drug-related nausea, incidence” value ([1]; human, in vivo) was 36.0% and the “drug-related paronychia, incidence” value ([1]; human, in vivo) was 48.0%. The “drug-related stomatitis, incidence” value ([1]; human, in vivo) was 44.0%, the “drug-related weight loss, incidence” value ([1]; human, in vivo) was 32.0% and the “patients with Grade 3 drug-related AEs” value ([1]; human, in vivo) was 20%. The “patients with at least one drug-related AE” value ([1]; human, in vivo) was 96%, the “Complete response, n (%)” value ([2]; 50 mg (n = 3)) was 0 (0) and the “Partial response, n (%)” value ([2]; 50 mg (n = 3)) was 0 (0). The “Progressive disease, n (%)” value ([2]; 50 mg (n = 3)) was 1 (33.3), the “Stable disease, n (%)” value ([2]; 50 mg (n = 3)) was 2 (66.7) and the “Disease control, n (%)” value ([2]; 50 mg (n = 3)) was 2 (66.7). The “Objective response, n (%)” value ([2]; 50 mg (n = 3)) was 0 (0), the “Complete response, n (%)” value ([2]; 100 mg (n = 3)) was 0 (0) and the “Partial response, n (%)” value ([2]; 100 mg (n = 3)) was 0 (0). The “Progressive disease, n (%)” value ([2]; 100 mg (n = 3)) was 1 (33.3), the “Stable disease, n (%)” value ([2]; 100 mg (n = 3)) was 2 (66.7) and the “Disease control, n (%)” value ([2]; 100 mg (n = 3)) was 2 (66.7). The “Objective response, n (%)” value ([2]; 100 mg (n = 3)) was 0 (0), the “Complete response, n (%)” value ([2]; 150 mg (n = 3)) was 0 (0) and the “Partial response, n (%)” value ([2]; 150 mg (n = 3)) was 0 (0). The “Progressive disease, n (%)” value ([2]; 150 mg (n = 3)) was 1 (33.3), the “Stable disease, n (%)” value ([2]; 150 mg (n = 3)) was 2 (66.7) and the “Disease control, n (%)” value ([2]; 150 mg (n = 3)) was 2 (66.7). The “Objective response, n (%)” value ([2]; 150 mg (n = 3)) was 0 (0), the “Complete response, n (%)” value ([2]; 220 mg (n = 3)) was 0 (0) and the “Partial response, n (%)” value ([2]; 220 mg (n = 3)) was 1 (33.3). For the same molecule, the “Progressive disease, n (%)” value ([2]; 220 mg (n = 3)) was 0 (0), the “Stable disease, n (%)” value ([2]; 220 mg (n = 3)) was 2 (66.7) and the “Disease control, n (%)” value ([2]; 220 mg (n = 3)) was 3 (100). The “Objective response, n (%)” value ([2]; 220 mg (n = 3)) was 1 (33.3), the “Complete response, n (%)” value ([2]; 300 mg (n = 6)) was 0 (0) and the “Partial response, n (%)” value ([2]; 300 mg (n = 6)) was 0 (0). For the same molecule, the “Progressive disease, n (%)” value ([2]; 300 mg (n = 6)) was 4 (66.7), the “Stable disease, n (%)” value ([2]; 300 mg (n = 6)) was 2 (33.3) and the “Disease control, n (%)” value ([2]; 300 mg (n = 6)) was 2 (33.3). The “Objective response, n (%)” value ([2]; 300 mg (n = 6)) was 0 (0), the “Complete response, n (%)” value ([2]; 350 mg (n = 3)) was 0 (0) and the “Partial response, n (%)” value ([2]; 350 mg (n = 3)) was 1 (33.3). The “Progressive disease, n (%)” value ([2]; 350 mg (n = 3)) was 0 (0), the “Stable disease, n (%)” value ([2]; 350 mg (n = 3)) was 2 (66.7) and the “Disease control, n (%)” value ([2]; 350 mg (n = 3)) was 3 (100). For the same molecule, the “Objective response, n (%)” value ([2]; 350 mg (n = 3)) was 1 (33.3), the “Complete response, n (%)” value ([2]; 400 mg (n = 3)) was 0 (0) and the “Partial response, n (%)” value ([2]; 400 mg (n = 3)) was 0 (0). For the same molecule, the “Progressive disease, n (%)” value ([2]; 400 mg (n = 3)) was 0 (0), the “Stable disease, n (%)” value ([2]; 400 mg (n = 3)) was 3 (100) and the “Disease control, n (%)” value ([2]; 400 mg (n = 3)) was 3 (100). The “Objective response, n (%)” value ([2]; 400 mg (n = 3)) was 0 (0), the “duration of maintained PR” value ([2]; NSCLC patient, 350-mg group, no EGFR-sensitive mutations) was 19 cycles and the “Complete response, n (%)” value ([2]; Total (n = 24)) was 0 (0). For the same molecule, the “Partial response, n (%)” value ([2]; Total (n = 24)) was 2 (8.3), the “Progressive disease, n (%)” value ([2]; Total (n = 24)) was 7 (29.2) and the “Stable disease, n (%)” value ([2]; Total (n = 24)) was 15 (62.5). For the same molecule, the “Disease control, n (%)” value ([2]; Total (n = 24)) was 17 (70.8), the “Objective response, n (%)” value ([2]; Total (n = 24)) was 2 (8.3) and the “cases of PR among five patients with EGFR mutations at baseline” value ([2]; after cycle one) was 1. For the same molecule, the “cases of SD among five patients with EGFR mutations at baseline” value ([2]; after cycle one) was 4, the “stable disease as best overall response, patients” value ([2]; all dose levels) was 15 and the “overall disease control rate (DCR)” value ([2]; all dose levels, 24 evaluable) was 70.8%. For the same molecule, the inhibition [3] was “potently inhibited”, the IC50 [4] was 26.6 nM and the “no observed adverse effect level (NOAEL)” value (Sprague–Dawley rats; daily administration) was 10 mg/kg. For the same molecule, the “maximal tolerable dose (MTD)” value (Sprague–Dawley rats) was 20 mg/kg.
